Measured values reported in patent US20250134895A1, “METHODS AND COMPOSITIONS FOR TREATING ALPHA-SYNUCLEIN-MEDIATED NEURODEGENERATION” (UNIVERSITY HEALTH NETWORK, priority 2021, published 2025).

Tested on: HSP70 mRNA
Assay: Real-time quantitative RT-PCR of HSP70 mRNA in rat primary cortical neurons
Type: cell-based
Conditions: 10 μM
Experimental: FIG. 18. […] Real-time quantitative RT-PCR was performed with 3 distinct primer sets for HSP70. β-Actin was used as the reference gene and the expression of HSP70 mRNA was analyzed by 2^−ΔΔCT method. The control group treated with DMSO was set as calibrator sample representing the 1×expression. Data are presented as mean±SEM. (n=3 independent experiments, unpaired two-tailed Student's t-test, ** p<0.01)
To investigate the mechanism underlying these drug effects, experiments were directed towards the potential involvement of molecular chaperone HSP70. […] To investigate the in silico predictions of HSP70 interactions with top drug candidates from the Cyclica proteome screening, fluorescence intensity was measured in V1 S-SV2 primary cortical rat neurons (FIGS. 15A and E) for potential effects on α-synuclein oligomers.
Total RNA was isolated from the cultured neurons on DIV 5 using RNeasy Mini Kit (50) (Qiagen, Cat #74104) according to the manufacturer's instructions. RNA quantity and purity were determined by spectrophotometric analysis (NanoDrop 2000c; Thermo Scientific). […] Quantitative real-time PCR was performed in the Quant Studio™ 5 Real-Time PCR System (ThermoFisher Scientific) using Power Track™ SYBR Green Master Mix (Invitrogen, Cat #A46109). […]

## Nc1nc(NC2CC2)c2ncn([C@H]3C=C[C@@H](CO)C3)c2n1 [Abacavir, abacavir]
  HSP70 mRNA levels compared with vehicle control: increased
